Test results: PMC11096368, “Transcriptomic signature, bioactivity and safety of a non-hepatotoxic analgesic generating AM404 in the midbrain PAG region” (Scientific Reports, 2024)

Key:
Sprague Dawley rats = experiment: 28-day oral toxicity study with 14-day recovery (GLP); type: in vivo
Text: (§1) We next set out to determine the toxicity and toxicokinetics of SRP-001 when administered via oral gavage once daily to Sprague–Dawley Rats for 28 d (Calvert Labs/Altasciences, Scott Township, PA USA). The study also assessed the reversibility of any toxicity observed with a 14-d recovery period. One hundred thirty-six experimentally naïve Sprague–Dawley rats (68 males and 68 females), 8 weeks old and weighing 167–295 g for males and females at the outset of the study, were assigned to toxicology treatment groups (Groups 1–4) or toxicokinetic groups (Groups 5–7). For toxicology groups, 10 animals/sex/dose were administered 0, 300, 900, or 1500 mg/kg/d SRP-001. An additional 5 animals/sex/dose in Groups 1 and 4 were targeted for a 14-d recovery period and euthanized on day 43. For toxicokinetic groups, 6 animals/sex/dose were administered 300, 900, or 1500 mg/kg/d SRP-001. Mortality/morbidity was performed twice daily and once prior to scheduled sacrifice. Animals in Groups 1–4 were observed prior to each dose administration and 1–3 h post-dose. Animals in Groups 1–4 were also observed once daily on non-dosing days and once prior to scheduled sacrifice. Body weights were recorded prior to randomization/selection, prior to dose administration on day 1, and weekly thereafter. Food consumption was determined weekly for animals in Groups 1–4. Ophthalmology examinations were performed before treatment initiation and during the last week of dosing for animals in Groups 1–4. The functional observational battery was assessed for 5 animals/sex/group in Groups 1–4 once prior to dosing and at 1–2 h following dose administration on day 1. Blood for evaluation of hematology, coagulation, and clinical chemistry and urine for urinalysis was collected from animals in Groups 1–4 on day 29 or day 43. Blood for toxicokinetic evaluation was collected from animals in Groups 5–7 at selected timepoints on days 1 and 28. All surviving animals in Groups 1–4 were sacrificed on day 29 or day 43. Selected tissues were harvested at necropsy, selected organs weighed, and selected tissues evaluated microscopically.
(§2) Following dosing, the reversibility of any toxicity observed was assessed with a 14-d recovery period of animals receiving 0 or 1500 mg/kg of SRP-001. SRP-001-related clinical signs included red staining around the forepaw, forelimbs, mouth, muzzle, and nose and brown-staining in the anogenital area. […] The majority of clinical signs were observed during the first 3 weeks of dosing, and by day 28, the majority of the animals appeared normal. […] These differences remained within or close to the historically normal ranges. Statistically significant differences in total protein, globulin, and mean corpuscular hemoglobin remained present in males after the recovery period, although at a smaller magnitude. SRP-001-related microscopic findings were limited to the liver and included minimal to mild centrilobular hepatocellular hypertrophy in both sexes at ≥ 300 mg/kg/d. This finding correlated with statistically significant increases in liver weights in both sexes.
(§3) Exposure to SRP-001 following oral gavage dosing at 300, 900, and 1500 mg/kg SRP-001 was dose-dependent, increasing with escalating doses following a single dose. […] Based on the parameters observed, the no-adverse effect level (NOAEL) of SRP-001, when administered once daily for 28 d to Sprague–Dawley rats, was 1500 mg/kg.

[1] = as above; type: in vivo, rats; settings: both sexes, Sprague-Dawley, rat, in vivo, oral; once daily for 28 days; read-out: No-adverse effect level (NOAEL)
Text: as §1, §2, §3

For `CCN(CC)C(=O)c1ccccc1S(=O)(=O)NCC(=O)Nc1ccc(O)cc1` [SRP-001, N,N-diethyl-2-[[2-(4-hydroxyanilino)-2-oxo-ethyl]sulfamoyl]benzamide], the Exposure versus dose (Sprague Dawley rats; 300, 900, 1500 mg/kg, single dose and 28 days) was “dose-dependent”, the “Body weight, food consumption, functional observation battery, ophthalmology, coagulation, urinalysis” value (Sprague Dawley rats; 300, 900, 1500 mg/kg/d) was “no SRP-001-related effects” and the “Doses without treatment-related adverse effects” value (Sprague Dawley rats; 28 days of daily oral doses, rats) was “up to 1500 mg/kg/day”. For the same molecule, the “Doses with minimal to mild centrilobular hepatocellular hypertrophy (non-adverse)” value (Sprague Dawley rats; both sexes, 28 d) was no less than 300 mg/kg/day and the NOAEL at 28 d [1] was 1500 mg/kg.
